Reference: patent US20220347306A1, “SELECTIVE DELIVERY OF THERAPEUTIC AND IMAGING AGENTS” (priority 2018, published 2022)

Tests used:
[1] = Body weight (tolerability and toxicity) in human HT1080 fibrosarcoma xenograft model; settings: 1 mg/kg of the cytotoxic agent component, IV on days 0 and 3
Experimental: (§1) Female athymic nude mice (8-10 weeks old) purchased from Charles River (Wilmington, 01887, MA) were used after 4-7 day of acclimatization period. […] Human fibrosarcoma tumor cells from ATCC (CCL-121™) were grown using standard cell culture techniques. Tumor cells (1×10^8 tumor cells/mL) were suspended in DPBS/Matrigel™ (1:1 vol) and implanted subcutaneously (50 μL tumor cell suspension/mouse) into the upper mammary fat pad or right flank of mice with individual identification number (ear tag). Four to seven days later when the average tumor volume was about 50-100 mm^3, mice were randomized into different experimental groups based on identical averaged (Mean±SEM) tumor volume and dosed with (i) vehicle and (ii) different doses of test compounds. For each involved tumor-bearing mouse, the tumor volume (mm^3) was measured using a caliper and calculated as follows: tumor volume=width^2×length/2. Test compounds were administered intravenously (tail vein) twice (two administrations 3 days apart) in conscious restrained tumor-bearing mice throughout the study. Individual tumor volume, body weight as well as clinical signs were recorded during the study. Each study was terminated on day 12 post-dosing initiation. […] For each experimental group and study day, the tumor volumes from all involved mice were averaged and expressed as Mean±SEM. […]

[2] = tested on: HT1080 human fibrosarcoma subcutaneous tumor xenograft; assay: Human fibrosarcoma tumor xenograft therapeutic model, tumor growth; type: in vivo, athymic nude mice; settings: dosed at 0.6 to 3.0 mg/kg of cytotoxic payload component, intravenously twice 3 days apart, evaluated day 9
Experimental: as §1

[3] = tested on: HT1080 fibrosarcoma cells; assay: Cancer cell viability assay using human HT1080 fibrosarcoma cells; type: cell-based; settings: four days incubation, reduction of viable cells, SDM as such
Experimental: Method: Plate cells one day prior to start of assay in 96 well black with clear bottom plates (Corning #3603), 2×10^4 cells per well in 100 μL of standard growth media (according to ATCC). Grow cells to 90% confluency.
Before start of assay rinse cells IX with DPBS. Add compounds in a 3-fold serial dilution in triplicate (range e.g. 8.1 μM-3.7 nM), 100 μL per well in standard growth media.
Incubate four days then assay cell viability as described below. Remove media and rinse IX with DPBS, then add 100 μL per well 10% Prestoblue Cell viability reagent (Thermo Fisher Scientific #A13261) in complete media. Return to incubator for two hours then read plate on SpectraMax M2e, bottom read excitation 555 emission 585 cut-off 570 which measures number of live cells. […] In most cases, SDMs were also tested in activated form by pre-treatment with protease that activates the compound. […] In Table 9 this is represented as ACT SDM-200.

| SMILES | Tolerability (FIG. 3B) [1] | Weight loss (body weight normalized to day 1, FIG. 3B) [1] | Efficacy (percent tumor growth inhibition versus vehicle) [2] | EC50 [3] |
| --- | --- | --- | --- | --- |
| [2H]C(=O)OCc1ccc(NC(=O)[C@H](CCCNC(N)=O)NC(=O)[C@@H](NC(=O)CCCCCN2C(=O)C=CC2=O)C(C)C)cc1 [SDM-155] | not tolerated | > 20% |  |  |
| [2H]CC(NC(=O)C(CCCNC(=N)N)NC(=O)[C@H](CCCNC(=N)N)NC(=O)[C@@H](CCCNC(=N)N)NC(=O)[C@H](CCCNC(=N)N)NC(=O)[C@@H](CCCNC(=N)N)NC(=O)[C@H](CCCNC(=N)N)NC(=O)[C@@H](CCCNC(=N)N)NC(=O)[C@H](CCCNC(=N)N)NC(=O)C(CO)NC(=O)[C@H](CCCNC(=N)N)NC(=O)[C@H](Cc1c[nH]c2ccccc12)NC(=O)C(CC(C)C)NC(=O)C(C)NC(=O)[C@H](CC(C)C)NC(=O)[C@@H]1CCCN1C(=O)[C@H](CCCNC(=N)N)NC(=O)COCCNC(=O)C(Cc1ccc(C(C)=O)cc1)NC(=O)[C@@H](CCC(=O)O)NC(=O)[C@@H](CCC(=O)O)NC(=O)[C@@H](CCC(=O)O)NC(=O)[C@@H](CCC(=O)O)NC(=O)[C@@H](CCC(=O)O)NC(=O)CCN1C(=O)C=CC1=O)C(N)=O (some centres unmarked) [SDM-173] |  |  | High (High: ≥80% inhibition) |  |
| CC[C@H](C)C([C@@H](CC(=O)N1CCCC1[C@H](OC)[C@@H](C)C(=O)N[C@@H](Cc1ccccc1)C(=O)O)OC)N(C)C(=O)[C@@H](NC(=O)[C@H](C(C)C)N(C)C(=O)CNC(=O)[C@H](CCCNC(N)=O)NC(=O)[C@@H](NC(=O)[C@H](Cc1ccc(/C(C)=N\OCCCCCC(=O)N[C@@H](CC(=O)O)C(=O)NC(CC2CCCCC2)C(=O)NC(Cc2ccccc2)C(=O)N[C@H](CO)C(=O)N[C@H](CCCNC(N)N)C(=O)N[C@@H](Cc2ccc(O)cc2)C(=O)N[C@@H](CC(C)C)C(=O)N[C@@H](Cc2c[nH]c3ccccc23)C(=O)N[C@@H](CO)C(N)=O)cc1)NC(=O)CCCCCN1C(=O)C=CC1=O)C(C)C)C(C)C (some centres unmarked) [SDM-185] |  |  | Medium (Medium: ≥29% inhibition to < 80% inhibition) | < 300 nM |
